{"source": "patent US20160256510A1", "about": "“PALIURUS RAMOSISSIMUS (LOUR.) POIR EXTRACT AND PREPARATION METHOD AND USES THEREOF” (priority 2013, published 2016)", "key": {"transplanted tumor S 180": {"test_system": "transplanted tumor S 180", "settings": "control group (positive control cyclophosphamide 85 mg/kg daily)", "method": "Take Kunming mice, subcutaneously inject 0.2 ml of S180 suspension (about 1×10^6 tumor cells) in a routine way at the right anterior lobe. 24 hours after injection, mice are randomly grouped and numbered. There are 10 mice in the control groups, and 10 mice each in test groups of high dose, middle dose, and low dose. Mice in each group receive drugs via intragastric administration once a day for a total of 14 times. In positive control group, cyclophosphamide (85 mg/kg) is given daily, and the dose, frequency, time are identical with the test groups."}, "[1]": {"test_system": "pylorus ligation induced gastric ulcer", "assay": "Pylorus ligation induced experimental gastric ulcer in rats", "type": "in vivo", "settings": "60 mg/kg intragastric, 3 days", "description": "(§1) In all groups, mice receive test substance via intragastric administration once a day for 3 consecutive days.\nas §1"}, "S180": {"test_system": "S180", "assay": "Mice bearing S180, tumor weight and inhibition rate", "type": "in vivo, Kunming mice", "method": "(§2) Choose mice which are in good health conditions and received S180 tumor injection 8 days ago, disinfect abdominal skin, draw ascites, mix with normal saline as ratio of 1:4 (ascites volume:normal saline volume) to make suspension. […] In all groups, subcutaneously inject 0.2 ml of the aforementioned suspension at the right anterior lobe. 2 hours after injection, mice in control group and drug groups receive test substance or suspension via intragastric administration once a day for 14 consecutive days. In positive control group, CTX is administered intraperitoneally once every other day for a total of 7 times.\nas §2, with “intragastric or intravenous” for “intragastric”"}, "pulmonary fibrosis": {"test_system": "pulmonary fibrosis", "assay": "Bleomycin-induced pulmonary fibrosis in rats", "type": "in vivo, SD rats", "settings": "lung, 30 days", "method": "Take 60 SD rats (200-240 g, male), randomly divide into sham operation control group (0.5% mucilage tragacanth), model control group (0.5% mucilage tragacanth), positive control group (dexamethasone, 1 mg/kg), Paliurus ramosissimus (Lour) Poir. extract (prepared according to Embodiment 1) low-dose group (0.4 g/kg), Paliurus ramosissimus (Lour) Poir. extract middle-dose group (0.8 g/kg), and Paliurus ramosissimus (Lour) Poir. extract high-dose group (1.6 g/kg) with stratification of body weight. All animals receive trachea separation under anesthesia by intraperitoneal injection of 10% chloral hydrate (350 mg/kg). Except the sham operation control group, rats in other groups receive injection of 5 mg/kg of bleomycin in 0.4 ml of normal saline solution, while rats in sham operation control group receive normal saline solution only. From the next day after surgery, test substance is given daily for 30 consecutive days. Sacrifice the animals by cervical dislocation, and take the lungs; some organs are homogenized for hydroxyproline content determination, and some are for pathological examination.\nTake 60 SD rats (200-240 g, male), randomly divide into sham operation control group, model control group, positive control group (dexamethasone, 1 mg/kg), Paliurus ramosissimus (Lour) Poir. extract group (prepared according to Embodiment 1, 0.8 g/kg. op), Ligustrazine (40 mg/kg, ip)and drug combination group (Paliurus ramosissimus (Lour) Poir. Extract 0.8 g/kg, op; Ligustrazine injection40 mg/kg, ip) with stratification of body weight. All animals receive trachea separation under anesthesia by intraperitoneal injection of 10% chloral hydrate (350 mg/kg). Except the sham operation control group, rats in other groups receive injection of 5 mg/kg of bleomycin in 0.4 ml of normal saline solution, while rats in sham operation control group receive normal saline solution only. The next day after the surgery, give the test substance via intragastric administration or injection administration, test substance is given daily for 30 consecutive days. […]"}, "TNBS induced colitis": {"test_system": "TNBS induced colitis", "assay": "TNBS induced experimental colitis in rats", "type": "in vivo", "settings": "2 mg/kg", "method": "After the animals are fasted for 24 h, perform anesthesia with sodium pentobarbital. Except the sham operation group, perform coloclysis with TNBS and 40% ethanol, and replicate experimental colitis model; 6 h after model construction, administer test substance. At the day 5 of administration, draw tail vein blood and count leukocyte. At day 6, perform urethane anesthesia, draw abdominal aortic blood and sacrifice the animals by cervical dislocation. Cut 9 cm colon from the anus, in an ice bath, cut intestine along the mesenteric edge, wash out the contents, measure the ulcer area, calculate the percentage of ulcer area; weigh the colon, scrap colonic mucosa, and determine tumor necrosis factor (TNF-α) concentration with ELISA method."}, "[2]": {"test_system": "experimental hepatic fibrosis", "assay": "Carbon tetrachloride-induced liver fibrosis in rats", "type": "in vivo, SD rats", "settings": "3 months", "method": "Take 60 SD rats (200-240 g, male), randomly divide into blank control group (0.5% mucilage tragacanth), model control group (0.5% mucilage tragacanth), positive control group (dexamethasone, 1 mg/kg), Paliurus ramosissimus (Lour) Poir. extract (prepared according to Embodiment 1) low-dose group (0.4 g/kg), Paliurus ramosissimus (Lour) Poir. extract middle-dose group (0.8 g/kg), and Paliurus ramosissimus (Lour) Poir. extract high-dose group (1.6 g/kg) with stratification of body weight. Except the blank control group, rats in other groups receive subcutaneous injection of 1 ml/kg of 40% carbon tetrachloride in vegetable oil solution, 2 times a week for 3 consecutive months, while receiving high-fat diet and 5% ethanol aqueous solution. Test substance is given via intragastric administration once daily for 3 consecutive months. On the next day after drug administration, draw abdominal aortic blood, separate plasma, determine the levels of alanine aminotransferase (ALT), III procollagen (PC-III), hyaluronic acid (HA) and laminin (LH); the sacrifice the animals, and take the liver for pathological examination.\nTake 60 SD rats (200-240 g, male), randomly divide into blank control group, model control group, positive control group (dexamethasone, 1 mg/kg), Paliurus ramosissimus (Lour) Poir. extract group (prepared according to Embodiment 1, 0.8 g/kg), Polyene phosphatidylcholine group, drug combination group (Paliurus ramosissimus (Lour.) Poir. Extract0.8 g/kg+Polyene phosphatidylcholine1 ml/kg) with stratification of body weight. Except the blank control group, rats in other groups receive subcutaneous injection of 1 ml/kg of 40% carbon tetrachloride in vegetable oil solution, 2 times a week for 3 consecutive months, while receiving high-fat diet and 5% ethanol aqueous solution. Test substance is given via intragastric administration once daily for 3 consecutive months. On the next day after drug administration, draw abdominal aortic blood, separate plasma, determine the levels of alanine aminotransferase (ALT), III procollagen (PC-III), hyaluronic acid (HA) and laminin (LH); the sacrifice the animals, and take the liver for pathological examination."}, "peritoneal macrophages": {"test_system": "peritoneal macrophages", "assay": "Peritoneal macrophage phagocytosis of normal mice", "type": "in vivo, KM mice", "settings": "inhibition effect positive control 0.1 g/kg, one subcutaneous injection at day 13", "procedure": "Except that the mice in inhibition effect positive control group receive one dose of subcutaneous injection at day 13, mice in other groups receive test substance or suspension via intragastric administration once a day for 14 consecutive days. At day 13 and 14, apply intraperitoneal injection of 6% starch solution respectively. 1 h after the last administration at day 14, apply intraperitoneal injection of 1 ml of 5% chicken erythrocytes in saline suspension; 30 min later, sacrifice the mice by cervical dislocation, apply intraperitoneal injection of 2 ml saline, and gently massage the abdomen. 1 min later, cut open abdomen, draw 1 ml of peritoneal washings, evenly drop on two slides, place in a wet box, and incubate at 37° C. for 30 min. Rinse in saline, dry, fix with 1:1 acetone-methanol solution, stain with 4% (v/v) Giemsa-PBS for 3 min, rinse with distilled water and dry, perform microscopic examination, and calculate the percentage of phagocytosis."}, "Ehrlich ascites tumor": {"test_system": "Ehrlich ascites tumor", "assay": "Mice bearing Ehrlich ascites tumor, survival time and ascites weight", "type": "in vivo, Kunming mice", "settings": "40 mg/kg intraperitoneally every other day, 7 times", "method": "Choose mice which are in good health conditions and received Ehrlich ascites tumor injection 8 days ago, disinfect abdominal skin, draw ascites, mix with normal saline to […] for future use. […] In all groups, subcutaneously inject 0.2 ml of the aforementioned suspension at the right anterior lobe. 2 hours after injection, mice in control group and drug groups receive test substance or suspension via intragastric administration once a day, administer continuously until the animal is dying. In positive control group, CTX is administered intraperitoneally once every other day for a total of 7 times. When the animal is dying, sacrifice it by cervical dislocation; the day of dying is calculated as survival time; after death, weigh, exhaust ascites, weigh again, and the difference is the weight of ascites."}, "[3]": {"settings": "Table 8, 1 ml/kg once a day, 14 days"}, "[4]": {"settings": "Table 11, dexamethasone 1 mg/kg"}, "[5]": {"settings": "Table 11, polyene phosphatidylcholine group (1 ml/kg in the combination)"}, "[6]": {"settings": "Table 8, 5 mg/kg once a day, 14 days"}, "[7]": {"settings": "Table 6, 40 mg/kg intraperitoneally every other day, 7 times"}, "[8]": {"settings": "Table 8, 40 mg/kg intraperitoneally every other day, 7 times"}}, "note": "Marks after values point to notes of the source that are not given here."}
{"compound": "O=P1(N(CCCl)CCCl)NCCCO1", "note": "(stereo not shown) [Control group, cyclophosphamide]", "values": [{"measurement": "Tumor inhibition rate", "setting": "transplanted tumor S 180", "value": "38.45 ± 3.62", "unit": "%"}]}
{"compound": "CNC(=C[N+](=O)[O-])NCCSCc1ccc(CN(C)C)o1", "note": "[ranitidine]", "values": [{"measurement": "Ulcer index", "setting": "[1]; Table 19", "value": "1.5 ± 0.4"}, {"measurement": "Inhibition rate (%)", "setting": "[1]; Table 19, ulcer", "value": 68.1, "unit": "%"}, {"measurement": "Ulcer index", "setting": "[1]; Table 22", "value": "1.8 ± 0.6"}, {"measurement": "Ulcer inhibition rate (%)", "setting": "[1]; Table 22", "value": 60.0, "unit": "%"}]}
{"compound": "CC(=O)O[C@H]1[C@H]2O[C@]23[C@@H]2CC[C@]4(O)C[C@@H](O)CC[C@]4(C)[C@H]2CC[C@]3(C)[C@H]1c1ccc(=O)oc1", "note": "[Cinobufotalin, cinobufotalin]", "values": [{"measurement": "Tumor inhibition rate (%)", "setting": "S180; [3]", "value": 43.8, "unit": "%"}, {"measurement": "Tumor weight", "setting": "S180; [3]", "value": "0.73 ± 0.42", "unit": "g"}]}
{"compound": "C[C@@H]1C[C@H]2[C@@H]3CCC4=CC(=O)C=C[C@]4(C)[C@@]3(F)[C@@H](O)C[C@]2(C)[C@@]1(O)C(=O)CO", "note": "[Positive Control, dexamethasone]", "values": [{"measurement": "Hydroxyproline content (mg/gpro)", "setting": "pulmonary fibrosis; Table 10, dexamethasone 1 mg/kg daily", "value": "13.6 ± 3.3", "unit": "mg/gpro"}, {"measurement": "Hydroxyproline content (mg/gpro)", "setting": "pulmonary fibrosis; Table 12, dexamethasone 1 mg/kg daily", "value": "13.4 ± 3.7", "unit": "mg/gpro"}, {"measurement": "Ratio of ulcer area (%)", "setting": "TNBS induced colitis; colon, day 6", "value": "28.6 ± 10.5", "unit": "%"}, {"measurement": "TNF-α (ng/gpro)", "setting": "TNBS induced colitis; colonic mucosa, ELISA", "value": "73.2 ± 19.6", "unit": "ng/gpro"}, {"measurement": "Leukocyte count (10^9/L)", "setting": "TNBS induced colitis; tail vein blood, day 5", "value": "8.4 ± 0.9** 10^9/L"}, {"measurement": "ALT (U/L)", "setting": "[2]; Table 9, dexamethasone 1 mg/kg", "value": "456 ± 98", "unit": "U/L"}, {"measurement": "HA", "setting": "[2]; Table 9, dexamethasone 1 mg/kg", "value": "280 ± 54", "unit": "µg/L"}, {"measurement": "LN", "setting": "[2]; Table 9, dexamethasone 1 mg/kg", "value": "62 ± 20", "unit": "µg/L"}, {"measurement": "PC-III", "setting": "[2]; Table 9, dexamethasone 1 mg/kg", "value": "20.8 ± 3.1", "unit": "µg/L"}, {"measurement": "ALT (U/L)", "setting": "[2]; [4]", "value": "478 ± 90", "unit": "U/L"}, {"measurement": "HA", "setting": "[2]; [4]", "value": "285 ± 57", "unit": "µg/L"}, {"measurement": "LN", "setting": "[2]; [4]", "value": "65 ± 23", "unit": "µg/L"}, {"measurement": "PC-III", "setting": "[2]; [4]", "value": "20.6 ± 3.8", "unit": "µg/L"}]}
{"compound": "Polyene phosphatidylcholine", "values": [{"measurement": "ALT (U/L)", "setting": "[2]; [5]", "value": "443 ± 130", "unit": "U/L"}, {"measurement": "HA", "setting": "[2]; [5]", "value": "284 ± 78", "unit": "µg/L"}, {"measurement": "LN", "setting": "[2]; [5]", "value": "63 ± 18", "unit": "µg/L"}, {"measurement": "PC-III", "setting": "[2]; [5]", "value": "27.0 ± 4.8", "unit": "µg/L"}]}
{"compound": "CC(=O)O[C@H]1C(=O)[C@@]2(C)[C@H]([C@H](OC(=O)c3ccccc3)[C@]3(O)C[C@H](OC(=O)[C@H](O)[C@@H](NC(=O)c4ccccc4)c4ccccc4)C(C)=C1C3(C)C)[C@]1(OC(C)=O)CO[C@@H]1C[C@@H]2O", "note": "[Paclitaxel, paclitaxel]", "values": [{"measurement": "Tumor inhibition rate (%)", "setting": "S180; [6]", "value": 34.6, "unit": "%"}, {"measurement": "Tumor weight", "setting": "S180; [6]", "value": "0.85 ± 0.38", "unit": "g"}]}
{"compound": "Cc1nc(C)c(C)nc1C", "note": "[Ligustrazine]", "values": [{"measurement": "Hydroxyproline content (mg/gpro)", "setting": "pulmonary fibrosis; Table 12, 40 mg/kg ip daily", "value": "14.6 ± 5.7", "unit": "mg/gpro"}]}
{"compound": "O=P1(N(CCCl)CCCl)NCCCO1", "note": "(stereo not shown) [ctx, cyclophosphamide]", "values": [{"measurement": "Percentage of phagocytosis", "setting": "peritoneal macrophages", "value": "0.12 ± 0.03"}, {"measurement": "Tumor inhibition rate (%)", "setting": "S180; [7]", "value": 70.8, "unit": "%"}, {"measurement": "Tumor weight", "setting": "S180; [7]", "value": "0.35 ± 0.58", "unit": "g"}, {"measurement": "Tumor inhibition rate (%)", "setting": "S180; [8]", "value": 63.1, "unit": "%"}, {"measurement": "Tumor weight", "setting": "S180; [8]", "value": "0.48 ± 0.41", "unit": "g"}, {"measurement": "Survival time", "setting": "Ehrlich ascites tumor", "value": "17.2 ± 2.3", "unit": "days"}, {"measurement": "Weight of ascites", "setting": "Ehrlich ascites tumor", "value": "15.9 ± 1.5"}]}
